# Measured values reported in PMC4870302, “In Vitro and In Vivo Comparison of Selected Ga-68 and Zr-89 Labelled Siderophores” (Molecular Imaging and Biology, 2015).
# What was measured:
# [1] = Protein binding in fresh human serum (size-exclusion MicroSpin G-50); assay type: in vitro ADME; details: for Protein binding (%) (mean, n = 2): 37 °C; for protein binding: after 24-h incubation period
# Description: Protein binding studies were performed by incubating radiolabelled siderophore (1–2 μg/150 μl) in fresh human serum (850 μl) and in PBS (850 μl) (control) at 37 °C for various time points (30, 60 and 120 min for [^68Ga]siderophores and 1, 4 and 24 h for [^89Zr]siderophores). After incubation, 25 μl of the sample was separated by size-exclusion chromatography (MicroSpin™ G-50 Columns; Sephadex G-50 (GE Healthcare, Buckinghamshire, UK)) by centrifugation at 2000×g for 2 min. Protein binding of radiolabelled siderophores was determined by measuring the activity distributed between the column (non protein-bound) and the eluate (protein-bound) using the automatic gamma counter.
# [2] = In vitro stability in 6 mM DTPA solution pH 7 (RP-HPLC); assay type: physicochemical; details: 6 mM DTPA pH 7, 37 °C
# Description: The in vitro stability of radiolabelled siderophores (3–6 μg/100 μl) was tested in fresh human serum (300 μl) and a 6 mM solution of diethylenetriaminepentaacetic acid (DTPA) pH = 7 (100 μl) at 37 °C at several time points (30, […]). After incubation, human serum samples were precipitated with acetonitrile or ethanol, centrifuged (2200×g, 3 min) and the supernatant analyzed. Degradation of the radiolabelled siderophore complexes was evaluated by RP-HPLC. Samples of the DTPA solutions were directly injected onto the HPLC.
# [3] = In vitro stability in fresh human serum (RP-HPLC); assay type: in vitro ADME; details: for Stability in human serum (%) (n = 1): 37 °C; for in vitro stability (in words): human serum and 6 mM DTPA, all examined media
# Description: […] After incubation, human serum samples were precipitated with acetonitrile or ethanol, centrifuged (2200×g, 3 min) and the supernatant analyzed. Degradation of the radiolabelled siderophore complexes was evaluated by RP-HPLC. Samples of the DTPA solutions were directly injected onto the HPLC.
# [4] = Partition coefficient determination (octanol/PBS pH 7.4); assay type: physicochemical
# Description: Radiolabelled siderophore in 0.5 ml phosphate-buffered saline (PBS) pH = 7.4 was added to 0.5 ml octanol and the mixture was vigorously vortexed for 15 min. The aqueous and organic solvents were separated by centrifugation and 50 μl aliquots of both layers were collected and measured in the automatic gamma counter (WIZARD^2; PerkinElmer, Waltham, USA). Log P values were calculated from obtained data (mean of n = 6).
# [5] = Protein binding in fresh human serum (size-exclusion MicroSpin G-50); assay type: in vitro ADME; details: 37 °C
# [6] = Small animal PET/CT imaging in Balb/c mice; assay type: in vivo; details: r.o. injection, 5-10 MBq
# Description: PET and computed tomography (CT) images were acquired with an Albira PET/SPECT/CT small animal imaging system (Bruker Biospin Corporation, Woodbridge, CT, USA). Female Balb/c mice were r.o. injected with radiolabelled siderophores in a dose of 5–10 MBq corresponding to 0.5–1 μg of siderophore per mouse. Animals were anaesthetized with isoflurane (FORANE, Abbott Laboratories, Abbott Park, IL, USA) (2 % flow rate) and positioned prone head first in the Albira system before the start of imaging. Static PET/CT imaging was carried out 5, 30 and 90 min p.i. for both Ga-68 and Zr-89 labelled siderophores. Animals injected with [^89Zr]siderophores were also imaged 4 h p.i. A 5-min PET scan (axial FOV 148 mm) was performed, followed by a CT scan (axial FOV 65 mm, 45 kVp, 400 μA, at 600 projections). Dynamic imaging was carried out immediately after the injection of radiolabelled siderophore for 90 min (5 min PET scan per frame). Scans were reconstructed with the Albira software (Bruker Biospin Corporation, Woodbridge, CT, USA) using the maximum likelihood expectation maximization (MLEM) and filtered backprojection (FBP) algorithms. After reconstruction, acquired data was viewed and analyzed with PMOD software (PMOD Technologies Ltd., Zurich, Switzerland). 3D images were obtained using VolView software (Kitware, Clifton Park, NY, USA). […]
# [7] = Ex vivo biodistribution in Balb/c mice; details: r.o. injection, 30 and 90 min p.i.
# Description: Biodistibution of radiolabelled siderophores was studied in female Balb/c mice (8 weeks old). Ga-68 and Zr-89 labelled siderophores (1–2 MBq/mouse, corresponding to 0.1–0.2 μg of siderophore per mouse) were injected retro-orbitally (r.o.). Animals were sacrificed by cervical dislocation 30 and 90 min post-injection (p.i.). Organs and tissues (blood, spleen, pancreas, stomach, intestine, kidneys, liver, heart, lung, muscle and femur) were removed and weighed. The amount of radioactivity in the samples was measured in an automatic gamma counter. Results were expressed as percentage of injected dose per gram organ (%ID/g).
"Protein binding (%) (mean, n = 2) ([1]; incubation time 30 min)","Protein binding (%) (mean, n = 2) ([1]; incubation time 60 min)","Protein binding (%) (mean, n = 2) ([1]; incubation time 120 min)",Stability in DTPA solution (%) (n = 1) ([2]; incubation time 30 min),Stability in DTPA solution (%) (n = 1) ([2]; incubation time 60 min),Stability in DTPA solution (%) (n = 1) ([2]; incubation time 120 min),Stability in human serum (%) (n = 1) ([3]; incubation time 30 min),Stability in human serum (%) (n = 1) ([3]; incubation time 60 min),Stability in human serum (%) (n = 1) ([3]; incubation time 120 min),"Log P (mean ± SD, n = 6) ([4]; Ga-68 labelled)",Stability in DTPA solution (%) (n = 1) ([2]; Incubation time (min) 1),Stability in DTPA solution (%) (n = 1) ([2]; Incubation time (min) 4),Stability in DTPA solution (%) (n = 1) ([2]; Incubation time (min) 24),Stability in human serum (%) (n = 1) ([3]; Incubation time (min) 4),Stability in human serum (%) (n = 1) ([3]; incubation time 24 h),"Log P (mean ± SD, n = 6) ([4]; Zr-89 labelled)","Protein binding (%) (mean, n = 2) [5]; 1","Protein binding (%) (mean, n = 2) [5]; 24",in vitro stability (in words) [3],Structure (SMILES),other results
0.47%,0.76%,1.21%,85.0%,84.7%,81.8%,99.9%,99.9%,99.9%,−2.59 ± 0.15,,,,,,,,,,"CC(=O)NC1CCCN([O-])C(=O)C=C(C)CCOC(=O)C(NC(C)=O)CCCN([O-])C(=O)C=C(C)CCOC(=O)C(NC(C)=O)CCCN([O-])C(=O)C=C(C)CCOC1=O.[68Ga+3] (centres unmarked) [[^68Ga]TAFC, [^68Ga]triacetylfusarinine C]",
,,,,,,,,,,99.51%,99.50%,99.50%,98.72%,98.50%,−1.95 ± 0.03,0.99%,1.37%,,"CC(=O)NC1CCCN([O-])C(=O)C=C(C)CCOC(=O)C(NC(C)=O)CCCN([O-])C(=O)C=C(C)CCOC(=O)C(NC(C)=O)CCCN([O-])C(=O)C=C(C)CCOC1=O.[89Zr+4] (centres unmarked) [[^89Zr]TAFC, [^89Zr]triacetylfusarinine C]",
7.67%,10.29%,10.83%,60.1%,54.5%,52.9%,74.1%,72.0%,75.4%,−3.56 ± 0.17,,,,,,,,,pronounced in vitro instability,CC(=O)N([O-])CCCCCNC(=O)CCC(=O)N([O-])CCCCCNC(=O)CCC(=O)N([O-])CCCCCN.[68Ga+3] [[^68Ga]FOXB],
0.27%,0.24%,0.53%,94.3%,93.8%,93.2%,99.9%,99.9%,99.9%,−1.65 ± 0.03,,,,,,,,,,"O=C1CCC(=O)N([O-])CCCCCNC(=O)CCC(=O)N([O-])CCCCCNC(=O)CCC(=O)N([O-])CCCCCN1.[68Ga+3] [[^68Ga]FOXE, [^68Ga]ferrioxamine E]",kinetics and excretion route in PET imaging (in words) [6]: quickly eliminated mainly via the kidneys; ex vivo biodistribution (in words) [7]: slightly higher radioactivity values in gastrointestinal tract
,,,,,,,,,,99.70%,99.50%,99.70%,99.70%,98.34%,−1.91 ± 0.04,3.27%,16.59%,,"O=C1CCC(=O)N([O-])CCCCCNC(=O)CCC(=O)N([O-])CCCCCNC(=O)CCC(=O)N([O-])CCCCCN1.[89Zr+4] [[^89Zr]FOXE, [^89Zr]ferrioxamine E]",protein binding [1]: 16.6%; kinetics and excretion route in PET imaging (in words) [6]: much slower kinetics and significant hepatobiliary elimination; ex vivo biodistribution (in words) [7]: significantly higher radioactivity accumulation in the intestines and liver
,,,,,,,,,,91.56%,90.39%,87.10%,99.70%,99.53%,−3.01 ± 0.07,1.63%,1.84%,higher stability in all examined media,CC(=O)N([O-])CCCCCNC(=O)CCC(=O)N([O-])CCCCCNC(=O)CCC(=O)N([O-])CCCCCN.[89Zr+4] [[^89Zr]FOXB],

Structure (SMILES),"Protein binding (%) (mean, n = 2) ([1]; incubation time 30 min)","Protein binding (%) (mean, n = 2) ([1]; incubation time 60 min)","Protein binding (%) (mean, n = 2) ([1]; incubation time 120 min)",Stability in DTPA solution (%) (n = 1) ([2]; incubation time 30 min),Stability in DTPA solution (%) (n = 1) ([2]; incubation time 60 min),Stability in DTPA solution (%) (n = 1) ([2]; incubation time 120 min),Stability in human serum (%) (n = 1) ([3]; incubation time 30 min),Stability in human serum (%) (n = 1) ([3]; incubation time 60 min),Stability in human serum (%) (n = 1) ([3]; incubation time 120 min),"Log P (mean ± SD, n = 6) ([4]; Ga-68 labelled)",Stability in DTPA solution (%) (n = 1) ([2]; Incubation time (min) 1),Stability in DTPA solution (%) (n = 1) ([2]; Incubation time (min) 4),Stability in DTPA solution (%) (n = 1) ([2]; Incubation time (min) 24),Stability in human serum (%) (n = 1) ([3]; Incubation time (min) 4),Stability in human serum (%) (n = 1) ([3]; incubation time 24 h),"Log P (mean ± SD, n = 6) ([4]; Zr-89 labelled)","Protein binding (%) (mean, n = 2) [5]; 1","Protein binding (%) (mean, n = 2) [5]; 24",in vitro stability (in words) [3],other results
CC(=CC(=O)N([O-])CCCC1NC(=O)CNC(=O)C(CO)NC(=O)C(CO)NC(=O)C(CCCN([O-])C(=O)C=C(C)C(=O)O)NC(=O)C(CCCN([O-])C(=O)C=C(C)C(=O)O)NC1=O)C(=O)O.[89Zr+4] (centres unmarked) [[^89Zr]FCHA],,,,,,,,,,,68.70%,65.27%,54.22%,85.42%,77.38%,−3.28 ± 0.37,2.70%,31.05%,less stable as compared to its Ga-68 labelled counterpart,protein binding [1]: 31.1%
